From paper PMC7020312 (CPT: Pharmacometrics & Systems Pharmacology, 2020)
Read-outs that look alike come from different tables or passages of the source.

Assays:
[1] = Physicochemical properties used as PBPK inputs; conditions: samidorphan, unpublished data provided by Alkermes
[2] = Blood-to-plasma partition ratio and fraction unbound in plasma; type: in vitro ADME
[3] = Caco-2 apical-to-basolateral apparent permeability; type: in vitro ADME; conditions: human
[4] = Unbound intrinsic metabolic clearance; type: in vitro ADME; conditions: human
non-CYP3A4 enzymes = assay: Unbound intrinsic metabolic clearance; type: in vitro ADME; conditions: human
CYP3A4 [5] = target: T1, CYP3A4 (Homo sapiens, UniProt P08684); type: in vitro ADME
T1 sequence (P08684 whole entry): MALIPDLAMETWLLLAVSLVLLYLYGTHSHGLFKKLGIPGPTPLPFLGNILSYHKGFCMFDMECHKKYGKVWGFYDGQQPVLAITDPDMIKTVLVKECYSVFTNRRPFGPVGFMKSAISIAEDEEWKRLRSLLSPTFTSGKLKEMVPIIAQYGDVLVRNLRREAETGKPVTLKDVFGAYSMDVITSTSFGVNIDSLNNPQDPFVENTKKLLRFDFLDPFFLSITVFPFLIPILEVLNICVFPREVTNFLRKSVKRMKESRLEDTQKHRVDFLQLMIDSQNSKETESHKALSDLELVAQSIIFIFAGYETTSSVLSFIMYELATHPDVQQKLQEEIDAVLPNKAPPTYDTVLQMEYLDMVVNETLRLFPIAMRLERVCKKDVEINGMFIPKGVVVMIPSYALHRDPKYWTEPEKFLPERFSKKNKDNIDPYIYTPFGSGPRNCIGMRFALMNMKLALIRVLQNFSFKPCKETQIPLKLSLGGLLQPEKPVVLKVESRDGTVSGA

[6] = Renal clearance / renal excretion of unchanged drug; conditions: human, in vivo
CYP2D6 = CYP2D6 (Homo sapiens, UniProt P10635); assay: CYP2D6 competitive inhibition; type: biochemical
Chain of CYP2D6 (P10635 whole entry): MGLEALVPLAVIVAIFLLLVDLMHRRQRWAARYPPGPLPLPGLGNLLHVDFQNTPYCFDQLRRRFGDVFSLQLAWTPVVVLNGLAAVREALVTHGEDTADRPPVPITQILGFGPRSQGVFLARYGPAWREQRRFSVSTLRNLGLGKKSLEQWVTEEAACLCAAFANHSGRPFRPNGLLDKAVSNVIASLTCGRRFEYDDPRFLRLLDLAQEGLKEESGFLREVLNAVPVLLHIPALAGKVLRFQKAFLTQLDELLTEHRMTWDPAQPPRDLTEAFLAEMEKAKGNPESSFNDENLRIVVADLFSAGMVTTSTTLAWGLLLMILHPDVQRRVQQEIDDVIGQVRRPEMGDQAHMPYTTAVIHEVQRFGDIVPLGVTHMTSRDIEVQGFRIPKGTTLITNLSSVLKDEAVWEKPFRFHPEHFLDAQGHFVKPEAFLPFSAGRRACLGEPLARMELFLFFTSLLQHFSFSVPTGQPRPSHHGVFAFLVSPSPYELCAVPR

[7] = Fraction unbound in microsomal incubation; type: in vitro ADME; conditions: 0.5 mg/mL microsomal incubation; unpublished data provided by Alkermes
[8] = cited from earlier work
human μ‐opioid receptor = conditions: in vitro; cited from earlier work
human κ‐opioid receptor = conditions: in vitro; cited from earlier work
human δ‐opioid receptor = conditions: in vitro; cited from earlier work
μ‐opioid receptors = conditions: in vitro; cited from earlier work
κ‐opioid receptors = conditions: in vitro; cited from earlier work
δ‐opioid receptors = conditions: in vitro; cited from earlier work
opioid receptor = conditions: cited from earlier work
CYP1A2 = assay: Unbound intrinsic metabolic clearance assigned to CYP1A2; type: in vitro ADME; conditions: human, human liver microsomes and recombinant enzymes
CYP2C8 = assay: Unbound intrinsic metabolic clearance assigned to CYP2C8; type: in vitro ADME; conditions: human, human liver microsomes and recombinant enzymes
UGT1A4 = assay: Unbound intrinsic metabolic clearance assigned to UGT1A4; type: in vitro ADME; conditions: human, human liver microsomes and recombinant enzymes
FMO3 = assay: Unbound intrinsic metabolic clearance assigned to FMO3; type: in vitro ADME; conditions: human, human liver microsomes and recombinant enzymes
[9] = olanzapine PBPK input, cited from earlier work
CYP3A4 [10] = target: T1, CYP3A4; conditions: cited from earlier work
[11] = cited from earlier work; remark: listed apart in the source
[12] = ± itraconazole 200 mg q.d., observed, sublingual BUP/SAM 2/2

NC(=O)c1ccc2c(c1O)[C@]13CCN(CC4CC4)[C@H](C2)[C@]1(O)CCC(=O)C3 [Samidorphan, samidorphan]
pKa ([1]; pKa1 (acid)): 7.5 | pKa ([1]; pKa2 (base)): 8.2 | Compound type [1]: Ampholyte | fraction unbound ([2]; plasma): 0.69 | B:P (blood‐to‐plasma partition ratio) ([2]; samidorphan, unpublished data provided by Alkermes): 1 | Papp A→B ([3]; Caco-2, pH 6.5): 188 nm/s | microsomal CLint [4]: 11.2 µL/min/mg | microsomal CLint (non-CYP3A4 enzymes): 5.22 µL/min/mg | microsomal CLint (CYP3A4 [5]): 5.93 µL/min/mg | CL renal [6]: 183 mL/min | Ki (CYP2D6): 41.5 µM | fumic at 0.5 mg/mL [7]: 0.86 | AUC ratio (geometric mean) [8, 12]: 1.50 | Cmax ratio (geometric mean) [8, 12]: 1.12 | binding affinity (in words) (human μ‐opioid receptor): high affinity | binding affinity (in words) (human κ‐opioid receptor): high affinity | binding affinity (in words) (human δ‐opioid receptor): high affinity | functional activity (in words) (μ‐opioid receptors): antagonist | functional activity (in words) (κ‐opioid receptors): partial agonist | functional activity (in words) (δ‐opioid receptors): partial agonist | in vivo function (in words) (opioid receptor): opioid receptor antagonist

Cc1cc2c(s1)Nc1ccccc1N=C2N1CCN(C)CC1 [Olanzapine, olanzapine]
Papp A→B ([3]; Caco-2, pH 7.4): 174 nm/s | microsomal CLint [4]: 57.9 µL/min/mg | microsomal CLint (CYP1A2): 23.7 µL/min/mg | microsomal CLint (CYP2C8): 4.98 µL/min/mg | microsomal CLint (CYP3A4 [5]; human liver microsomes and recombinant enzymes): 4.42 µL/min/mg | microsomal CLint (UGT1A4): 20.6 µL/min/mg | microsomal CLint (FMO3): 4.28 µL/min/mg | Compound type ([9]; ref Callaghan et al.21): Monoprotic base | log P ([9]; ref El‐Ela et al.29): 2.89 | contribution of CYP3A4 to the overall clearance (CYP3A4 [10]): < 10% | administered dose excreted renally as unchanged drug [11]: 7% | CLR (renal clearance) ([11]; olanzapine, ref Kassahun et al.15): 0.81 L/h | AUC lower in smokers than in nonsmokers ([8]; pharmacokinetics study (N = 49)): 15% | increase in clearance, smokers vs. nonsmokers ([8]; population pharmacokinetic analysis (N = 523)): 55%
